In PubChem BioAssay (NCI):
Values joined by “and” are separate entries in the source; they are usually repeats but may differ in a detail not shown here. Identical values can stand only once.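 These data come from cells grown in 96-well plates and exposed to compound for 48 hours at five concentrations. GI50: concentration for 50% inhibition of growth. TGI: concentration producing complete growth inhibition.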

How the values were obtained:
Assay in all cases: NCI anticancer screen, dose series, 48 h
T-47D breast = tested on: T-47D breast
DU-145 prostate = tested on: DU-145 prostate
MCF7 breast = tested on: MCF7 breast
LXFL 529 NSCLC = tested on: LXFL 529 NSCLC
KM20L2 colon = tested on: KM20L2 colon
XF 498 CNS = tested on: XF 498 CNS
HOP-18 NSCLC = tested on: HOP-18 NSCLC
MDA-N = tested on: MDA-N
RXF-631 renal = tested on: RXF-631 renal

| SMILES | GI50 (T-47D breast) [µM] | TGI (T-47D breast) [µM] | GI50 (DU-145 prostate) [µM] | TGI (DU-145 prostate) [µM] | GI50 (MCF7 breast) [µM] | TGI (MCF7 breast) [µM] | TGI (LXFL 529 NSCLC) [µM] | TGI (KM20L2 colon) [µM] | also measured |
| --- | --- | --- | --- | --- | --- | --- | --- | --- | --- |
| c1cc(CNC23CC4CC(CC(C4)C2)C3)cc(C[N+](Cc2cccc(CNC34CC5CC(CC(C5)C3)C4)c2)(Cc2cccc(CNC34CC5CC(CC(C5)C3)C4)c2)Cc2cccc(CNC34CC5CC(CC(C5)C3)C4)c2)c1 (stereo not drawn) | 5.59 | 28.1 | 6.16 | 19.3 | 4.46 | 25.9 |  |  |  |
| COC(=O)C1=CNC=C(C(=O)OC)C1C1=CC(=O)C(C)=CC1=O | 17.9 | 44.6 | 16 | 30.3 | 16.7 | 47.5 |  |  |  |
| C[C@@]12CC=C3c4nc(Nc5cccc(O)c5)sc4CC[C@]3(C)[C@H]1CC[C@]1(C)C(=O)CC[C@@H]21 | 2.61 | 8.3 |  |  | 1.85 | 4.43 |  |  |  |
| CCC[CH2][Sn]1([CH2]CCC)[O]CC(CN2CCCC2)[O]1 (stereo not drawn) |  |  |  |  |  |  | 15.3 | 52 | GI50 (LXFL 529 NSCLC): 4.33 µM; GI50 (KM20L2 colon): 20.6 µM |
| O=C(N/N=C/c1ccc(Cl)cc1)c1ccc(C(F)(F)F)nc1Nc1cccc(C(F)(F)F)c1 | 2.06 | 10.7 | 2.33 | 10.8 | 2.26 | 10.8 |  |  |  |
| CN1C/C=C\CCOc2cccc(c2)-c2ccnc(n2)Nc2cccc(c2)C1 | 0.0413 | 0.334 | 0.0562 | 6 | 0.0354 | 1.23 |  |  |  |
| CCOC(=O)[C@@H](N)CCC(=O)N[C@@H](CSCc1ccccc1)C(=O)N[C@@H](C(=O)OCC)c1ccccc1 | 14.8 | 33.8 | 38.3 | > 100 | 16.5 | 33.9 |  |  |  |
| COc1cc2c(cc1OC)C(CC(=O)NN=C(C)C)NCC2 (stereo not drawn) |  |  |  |  |  |  | > 100 | > 100 | TGI (XF 498 CNS): > 100 µM; TGI (HOP-18 NSCLC): > 100 µM |
| COC(=O)[C@H](C)NC(=O)NC(=O)NC(=O)CI | 7.46 | 32.2 | 15.4 | 29.2 | 10.2 | 29.8 |  |  |  |
| N#CCN1C(=O)c2cccc3cc([N+](=O)[O-])cc(c23)C1=O |  |  |  |  |  |  | > 100 | > 100 | TGI (XF 498 CNS): 68.3 µM; TGI (HOP-18 NSCLC): > 100 µM |
| CCOC(=O)C1=C(C)N(NC(=O)Nc2ccccc2)C(=O)C1=P(c1ccccc1)(c1ccccc1)c1ccccc1 |  |  |  |  |  |  | > 100 | > 100 | TGI (XF 498 CNS): 95.3 µM; TGI (HOP-18 NSCLC): > 100 µM |
| COc1cc2ncnc(Nc3ccc(C)c(O)c3)c2cc1OC | 7.79 | > 25 | 7.91 | > 25 | > 25 | > 25 |  |  |  |
| Oc1ccccc1C(Sc1nc2ccccc2s1)Sc1nc2ccccc2s1 |  | 73.5 |  | > 100 |  | > 100 |  |  | TGI (MDA-N): > 100 µM |
| COC1=C(C)C(=O)c2c(c(COC(N)=O)c3n2CC2C3N2C)C1=O (stereo not drawn) |  | 0.201 |  | 0.0542 |  | < 0.027 |  |  | TGI (MDA-N): 0.136 µM |
| COC1(OC)C2(Cl)C(Cl)=C(Cl)C1(Cl)C1C=CC=CC12 (stereo not drawn) |  |  |  |  |  |  | > 100 | > 100 | TGI (XF 498 CNS): > 100 µM; TGI (RXF-631 renal): 39.9 µM |
| CC1(C)C(=O)N(CCCCCCN2C(=O)C(C)(C)c3ccccc32)c2ccccc21 |  |  |  |  |  |  | > 100 | > 100 | TGI (XF 498 CNS): 53.6 µM; TGI (HOP-18 NSCLC): > 100 µM |

| SMILES | GI50 (T-47D breast) [µM] | TGI (T-47D breast) [µM] | GI50 (DU-145 prostate) [µM] | TGI (DU-145 prostate) [µM] | GI50 (MCF7 breast) [µM] | TGI (MCF7 breast) [µM] | TGI (LXFL 529 NSCLC) [µM] | TGI (KM20L2 colon) [µM] | also measured |
| --- | --- | --- | --- | --- | --- | --- | --- | --- | --- |
| O=C(O)C1OC(n2cc(F)c(=O)[nH]c2=O)CC1O (stereo not drawn) |  | > 100 |  | > 100 |  | > 100 | > 100 | > 100 | TGI (XF 498 CNS): > 100 µM; TGI (MDA-N): > 100 µM; TGI (HOP-18 NSCLC): > 100 µM |
| CS/C(N)=N\NC(=O)CCC(=O)Nc1ccccc1C(F)(F)F |  |  |  |  |  |  | > 100 | > 58.5 | TGI (HOP-18 NSCLC): > 100 µM |
| Clc1ccc(C2=Nn3c(COc4ccccc4Cl)nnc3SC2)c(Cl)c1 | 14 | 51.5 | 19.8 | 86.1 | 11 | > 100 |  |  |  |
| Cc1ccc(C(=O)CN(/C=C/C(=O)C(F)(F)F)c2ccc(S(N)(=O)=O)cc2)cc1 | 70.1 | > 100 | > 100 | > 100 | 59.8 | > 100 |  |  |  |
| Nn1c(=O)n(Cc2ccccc2)n(-c2ccccc2)c1=O |  |  |  |  |  |  | > 100 |  | TGI (XF 498 CNS): > 100 µM |
| CN1CCN(CCCOc2ccc3nc(Nc4ccc(Cl)c(C(F)(F)F)c4)ccc3c2)CC1 | 17.6 | 37.3 | 11.9 | 24.3 | 4.94 | 22 |  |  |  |
| N=C1C(c2nc3ccccc3s2)=C(O)CN1c1cc(C(F)(F)F)ccc1Cl | 48.1 | > 100 | 25.8 | > 100 | 16.9 | 92.1 |  |  |  |
| CN1c2ccc(Cl)cc2C(=O)NC1c1ccc([N+](=O)[O-])s1 (stereo not drawn) |  | 55 |  | 45.1 |  | 44.6 |  |  | TGI (MDA-N): 31.7 µM |
| Cc1cccc(NC(=O)/C(=N\NC(C)(C)C)C2NC(=S)NC2=O)c1C (stereo not drawn) |  |  |  |  |  |  | > 100 | > 100 | TGI (RXF-631 renal): > 100 µM |
| COc1ccccc1/C=C1\SC(=S)N(/C=C2\C(=O)Oc3ccccc3C2=O)C1=O |  |  |  | > 100 |  | > 100 |  |  | TGI (MDA-N): > 100 µM |
| Clc1nc(Cl)c(Cl)c(-c2ccccc2)n1 |  |  |  |  |  | 48.7 |  |  |  |
| COC(=O)[C@@H](C)CNS(=O)(=O)N(c1cc(C(F)(F)F)cc(C(F)(F)F)c1)C1CCN(Cc2ccc(F)cc2)CC1 | 5.34 | 19.6 | 13.4 | 27.4 | 6.91 | 21.9 |  |  |  |
| COc1ccc(/C=C/c2ccnc3ccccc23)c(OC)c1 |  | > 10 |  | > 10 |  | > 10 |  |  | TGI (MDA-N): > 10 µM |
| COc1cccc2c1C(=O)c1c(O)c3c(c(O)c1C2=O)C[C@@](O)(C(C)=O)C[C@@H]3OC1OC(C)C(O)C(N)C1Br (stereo partly drawn) |  | 0.74 |  | 2.67 |  |  | 1.12 | 1.17 | GI50 (XF 498 CNS): 0.0766 µM; TGI (XF 498 CNS): 0.414 µM and 0.423 µM; TGI (MDA-N): 0.63 µM; TGI (HOP-18 NSCLC): 0.345 µM |
| COc1cc(/C=C/c2cc(/C=C/c3ccc(O)c(OC)c3)n(C(=O)Nc3ccc(F)c(Cl)c3)n2)ccc1O | 0.634 | 2.32 | 0.419 | 1.55 | 0.185 | 1.51 |  |  |  |
| Cc1cc(Cl)ccc1N=C1NC(=O)C(CC(=O)Nc2ccc([N+](=O)[O-])cc2[N+](=O)[O-])S1 (stereo not drawn) |  |  |  |  |  |  | 47.5 | > 100 | TGI (XF 498 CNS): 53.6 µM |
